{
  "source": "ChEMBL document CHEMBL6127119",
  "about": "(J Med Chem, 2024)",
  "key": {"Enterococcus faecium [1]": {"tested_on": "Enterococcus faecium", "assay": "Antibacterial activity against vancomycin-resistant Enterococcus faecium harboring VanA phenotype incubated for 16 to 24 hrs by CLSI based broth microdilution method", "type": "functional", "details": "time 16-24 hrs"}, "Enterococcus faecium [2]": {"tested_on": "Enterococcus faecium", "assay": "Antibacterial activity against vancomycin-resistant Enterococcus faecium harboring VanM phenotype incubated for 16 to 24 hrs by CLSI based broth microdilution method", "type": "functional", "details": "time 16-24 hrs"}, "Escherichia coli [3]": {"tested_on": "Escherichia coli", "assay": "Antibacterial activity against Escherichia coli AB1157 incubated for 16 to 24 hrs by CLSI based broth microdilution method", "type": "functional", "details": "time 16-24 hrs"}, "Klebsiella pneumoniae": {"tested_on": "Klebsiella pneumoniae", "assay": "Antibacterial activity against Klebsiella pneumoniae clinical isolate incubated for 16 to 24 hrs by CLSI based broth microdilution method", "type": "functional", "details": "time 16-24 hrs"}, "Staphylococcus aureus [4]": {"tested_on": "Staphylococcus aureus", "assay": "Potency index, ratio of Vancomycin MIC to test compound MIC for vancomycin-intermediate Staphylococcus aureus incubated for 16 to 24 hrs by CLSI based broth microdilution method", "type": "functional", "details": "time 16-24 hrs"}, "Enterococcus faecium [5]": {"tested_on": "Enterococcus faecium", "assay": "Potency index, ratio of Vancomycin MIC to test compound MIC for vancomycin-resistant Enterococcus faecium incubated for 16 to 24 hrs by CLSI based broth microdilution method", "type": "functional", "details": "time 16-24 hrs"}, "Escherichia coli [6]": {"tested_on": "Escherichia coli", "assay": "Potency index, ratio of Vancomycin MIC to test compound MIC for Escherichia coli […] incubated for 16 to 24 hrs by CLSI based broth microdilution method", "type": "functional", "details": "time 16-24 hrs"}, "Staphylococcus aureus [7]": {"tested_on": "Staphylococcus aureus", "assay": "Potency index, ratio of Norvancomycin MIC to test compound MIC for vancomycin-intermediate Staphylococcus aureus incubated for 16 to 24 hrs by CLSI based broth microdilution method", "type": "functional", "details": "time 16-24 hrs"}, "Acinetobacter baumannii": {"tested_on": "Acinetobacter baumannii", "assay": "Potency index, ratio of Norvancomycin MIC to test compound MIC for Carbapenem-resistant Acinetobacter baumannii clinical isolate incubated for 16 to 24 hrs by CLSI based broth microdilution method", "type": "functional", "details": "time 16-24 hrs"}, "Staphylococcus hominis": {"tested_on": "Staphylococcus hominis", "assay": "Antibacterial activity against methicillin-resistant Staphylococcus hominis clinical isolate incubated for 16 to 24 hrs by CLSI based broth microdilution method", "type": "functional", "details": "time 16-24 hrs"}, "Staphylococcus aureus [8]": {"tested_on": "Staphylococcus aureus", "assay": "Antibacterial activity against methicillin-resistant Staphylococcus aureus clinical isolate incubated for 16 to 24 hrs by CLSI based broth microdilution method", "type": "functional", "details": "time 16-24 hrs"}, "Enterococcus faecalis": {"tested_on": "Enterococcus faecalis", "assay": "Antibacterial activity against Enterococcus faecalis clinical isolate incubated for 16 to 24 hrs by CLSI based broth microdilution method", "type": "functional", "details": "time 16-24 hrs"}, "Enterococcus faecium [9]": {"tested_on": "Enterococcus faecium", "assay": "Antibacterial activity against Enterococcus faecium clinical isolate incubated for 16 to 24 hrs by CLSI based broth microdilution method", "type": "functional", "details": "time 16-24 hrs"}, "Enterococcus faecium [10]": {"tested_on": "Enterococcus faecium", "assay": "Antibacterial activity against vancomycin-resistant Enterococcus faecium harboring VanA phenotype clinical isolate incubated for 16 to 24 hrs by CLSI based broth microdilution method", "type": "functional", "details": "time 16-24 hrs"}, "Staphylococcus aureus [11]": {"tested_on": "Staphylococcus aureus", "assay": "Bactericidal activity against methicillin-resistant Staphylococcus aureus MRSA252 assessed as reduction in bacterial count at 4 to 8 times MIC measured after 24 hrs by time kill assay", "type": "functional"}, "Staphylococcus aureus [12]": {"tested_on": "Staphylococcus aureus", "assay": "Bacteriostatic activity against methicillin-resistant Staphylococcus aureus MRSA252 at MIC measured after 24 hrs by time kill assay", "type": "functional, organism-based"}, "Enterococcus faecium [13]": {"tested_on": "Enterococcus faecium", "assay": "Bacteriostatic activity against Enterococcus faecium SC-2022-D2-059 harboring VanA phenotype at 1 to 8 times MIC measured after 24 hrs by time kill assay", "type": "functional, organism-based"}, "Escherichia coli [14]": {"tested_on": "Escherichia coli", "assay": "Bactericidal activity against Escherichia coli AB1157 assessed as reduction in bacterial count at 8 times MIC measured after 24 hrs by time kill assay", "type": "functional"}, "Staphylococcus aureus [15]": {"tested_on": "Staphylococcus aureus", "assay": "Antibacterial activity against Staphylococcus aureus Mu50 assessed as fold decrease in MIC at 1:1 ratio of compound and Ac2KAA at […] incubated for 16 to 24 hrs by absorbance based assay relative to control", "type": "functional", "details": "dose 128 µg/ml; time 16-24 hrs"}, "Staphylococcus aureus [16]": {"tested_on": "Staphylococcus aureus", "assay": "Antibacterial activity against Staphylococcus aureus Mu50 at 1:1 ratio of compound and FPP at […] incubated for 16 to 24 hrs by absorbance based assay", "type": "functional, organism-based", "details": "dose 128.0 µg/ml, time 16-24 hrs"}, "Escherichia coli [17]": {"tested_on": "Escherichia coli", "assay": "Induction of inner membrane permeabilization in Escherichia coli AB1157 measured for 50 mins by PI staining based analysis", "type": "functional, organism-based", "details": "dose 1-128 µg/ml"}, "Staphylococcus aureus [18]": {"tested_on": "Staphylococcus aureus", "assay": "Induction of cytoplasmic membrane depolarization in methicillin-resistant Staphylococcus aureus MRSA252 by DiSC3(5) staining based analysis", "type": "functional, organism-based"}, "Escherichia coli [19]": {"tested_on": "Escherichia coli", "assay": "Inhibition of peptidoglycan biosynthesis in Escherichia coli AB1157 assessed as increase in accumulation of Park's nucleotide at 16 ug/ml incubated for 2 hrs by RP-HPLC analysis", "type": "functional, organism-based", "details": "dose 16.0 µg/ml"}, "Peptidoglycan [20]": {"tested_on": "Peptidoglycan", "assay": "Binding affinity to Ac-Lys(Gly5)-D-Ala-D-Ala lipid II model peptide moiety assessed as association constant by ITC analysis"}, "Peptidoglycan [21]": {"tested_on": "Peptidoglycan", "assay": "Potency index, ratio of vancomycin Ka to test compound Ka for Ac-Lys(Gly5)-D-Ala-D-Ala lipid II model peptide moiety"}, "Staphylococcus aureus [22]": {"tested_on": "Staphylococcus aureus", "assay": "Post-antibiotic effect in Staphylococcus aureus MRSA252 assessed as time of effect at 10 times", "type": "functional"}, "Staphylococcus aureus [23]": {"tested_on": "Staphylococcus aureus", "assay": "Post-antibiotic effect in Staphylococcus aureus MRSA252 assessed as time of effect at 20 times", "type": "functional"}},
  "note": "Active and inactive are the calls of the source. The rule behind the calls is not given here.",
  "data": [
    {"smiles": "CC(C)C[C@@H](N)C(=O)N[C@H]1C(=O)N[C@@H](CC(N)=O)C(=O)N[C@H]2C(=O)N[C@H]3C(=O)N[C@H](C(=O)N[C@H](C(=O)NCc4ccc(-c5ccc(CNC(=N)N)cc5)cc4)c4cc(O)cc(O)c4-c4cc3ccc4O)[C@H](O)c3ccc(c(Cl)c3)Oc3cc2cc(c3O[C@@H]2O[C@H](CO)[C@@H](O)[C@H](O)[C@H]2O[C@H]2C[C@](C)(N)[C@H](O)[C@H](C)O2)Oc2ccc(cc2Cl)[C@H]1O", "values": [
      {"measurement": "MIC", "setting": "Enterococcus faecium [1]", "value": 4, "unit": "µg/mL"},
      {"measurement": "MIC", "setting": "Enterococcus faecium [2]", "value": 4, "unit": "µg/mL"},
      {"measurement": "MIC", "setting": "Escherichia coli [3]", "value": 8, "unit": "µg/mL"},
      {"measurement": "MIC", "setting": "Klebsiella pneumoniae", "value": "> 128", "unit": "µg/mL"},
      {"measurement": "Ratio", "setting": "Staphylococcus aureus [4]", "value": 2},
      {"measurement": "Ratio", "setting": "Enterococcus faecium [5]", "value": 2},
      {"measurement": "Ratio", "setting": "Escherichia coli [6]", "value": 2},
      {"measurement": "Ratio", "setting": "Staphylococcus aureus [7]", "value": 2},
      {"measurement": "Ratio", "setting": "Acinetobacter baumannii", "value": 2},
      {"measurement": "MIC", "setting": "Staphylococcus hominis", "value": "≤ 0.03", "unit": "µg/mL"},
      {"measurement": "MIC", "setting": "Staphylococcus aureus [8]", "value": "≤ 0.03", "unit": "µg/mL"},
      {"measurement": "MIC", "setting": "Enterococcus faecalis", "value": "≤ 0.03", "unit": "µg/mL"},
      {"measurement": "MIC", "setting": "Enterococcus faecium [9]", "value": "≤ 0.03", "unit": "µg/mL"},
      {"measurement": "MIC", "setting": "Enterococcus faecium [10]", "value": 2, "unit": "µg/mL"},
      {"measurement": "Activity", "setting": "Staphylococcus aureus [11]", "value": "~1", "unit": "log10CFU/ml"},
      {"measurement": "Activity", "setting": "Staphylococcus aureus [12]", "value": "Active"},
      {"measurement": "Activity", "setting": "Enterococcus faecium [13]", "value": "Active"},
      {"measurement": "Activity", "setting": "Escherichia coli [14]", "value": 3, "unit": "log10CFU/ml"},
      {"measurement": "fold change (FC)", "setting": "Staphylococcus aureus [15]", "value": 2},
      {"measurement": "Activity", "setting": "Staphylococcus aureus [16]", "value": "Active"},
      {"measurement": "Activity", "setting": "Escherichia coli [17]", "value": "Dose-Dependent Effect"},
      {"measurement": "Activity", "setting": "Staphylococcus aureus [18]", "value": "inactive"},
      {"measurement": "Activity", "setting": "Escherichia coli [19]", "value": "Active"},
      {"measurement": "Ka", "setting": "Peptidoglycan [20]", "value": "2.32e+06", "unit": "M⁻¹"},
      {"measurement": "Ratio", "setting": "Peptidoglycan [21]", "value": 1.7},
      {"measurement": "Time", "setting": "Staphylococcus aureus [22]", "value": 6, "unit": "h"},
      {"measurement": "Time", "setting": "Staphylococcus aureus [23]", "value": 23, "unit": "h"}
    ]}
  ]
}
